Reference: patent EP3628044B1, “PYRROLO[2,3-C]PYRIDINES AND RELATED ANALOGS AS LSD-1 INHIBITORS” (The Regents of The University of Michigan, priority 2017, dated 2018)

Target: T1, Human recombinant LSD1 protein (Homo sapiens, UniProt O60341)
T1 construct: purchased Active Motif (Carlsbad, CA); host or cells: E. coli
Assay: LSD1 enzymatic activity assay (AlphaLISA, Biotin-H3K4Me peptide substrate)
Type: biochemical
Conditions: 4 nM LSD1, 80 nM Biotin-H3K4Me peptide substrate, 1% DMSO, compounds tested as the TFA salt
Experimental: Human recombinant LSD1 protein expressed in E. coli cells was purchased from Active Motif (Carlsbad, CA). Biotin-labeled Histone H3K4Me peptide (residues 1-21 with Lys 4 monomethylated) substrate was purchased from Anaspec (Fremont, CA). Enzymatic activity was assessed using the AlphaLISA technology from Perkin Elmer Life Sciences (Waltham, MA). 2.5 µL of compound solution and 5 µL of LSD1 solutions in the assay buffer (50mM Tris, pH 9.0, 50mM NaCl with 0.01% Tween20 and 1mM DTT added right before the assay) were added into a white low volume 384 well microtiter plate. This mixture solution was incubated for 15 minutes with gentle shaking at room temperature. Demethylation reaction was initiated by adding 2.5 µL of Biotin-H3K4Me peptide substrate solution in the assay buffer. Final concentrations of LSD1, Biotin-H3K4Me peptide substrate, and DMSO were 4 nM, 80 nM, and 1%, respectively. […] Plates were read on a BMG CLARIOStar multimode plate reader from BMG Labtech (Ortenberg, Germany) with an excitation wavelength of 680 nm and emission wavelength of 615 nm. IC50 values of inhibitors were obtained by fitting the fluorescence intensity vs inhibitor concentrations in a sigmoidal dose-response curve (variable slope) with a non-linear regression using Prism 7 (La Jolla, CA). […]

SMILES	IC50
CN(C)c1ccc(-c2ncc3c(ccn3CC3CCNCC3)c2-c2ccc(C#N)cc2)cc1 [compound 85, 4-(5-(4-(dimethylamino)phenyl)-1-(piperidin-4-ylmethyl)-1H-pyrrolo[2,3-c]pyridin-4-yl)benzonitrile]	23.1 nM
